Like-named read-outs stand apart in the source and are kept apart here.
Tests used:
[1] = test system: Ralstonia solanacearum (Rs); type: cell-based; conditions: at the highest peptide concentration (32μg/ml) tested; data not shown; before the tests in minimal media
Pst DC3000 = conditions: Table 4, rich medium, up to 32 μg/ml
Xev Xvt28 [2] = test system: Xev Xvt28
Atu C58C1 [3] = conditions: Table 4, rich medium, up to 32 μg/ml
Eco DH5α [4] = test system: Eco DH5α
Xoo Xoo28 [5] = conditions: Table 4, rich medium, up to 32 μg/ml
Cgl FST02 = conditions: at the highest peptide concentration (32μg/ml) tested; data not shown; before the tests in minimal media
Pss B728a = conditions: Table 4, rich medium, up to 32 μg/ml
Bc = conditions: at the highest peptide concentration (32μg/ml) tested; data not shown; before the tests in minimal media
Eco DH5α [6] = conditions: 48 h
Xev Xvt28 [7] = conditions: 48 h
Xcc Xcc17 [8] = conditions: Table 4, rich medium, up to 32 μg/ml
Atu C58C1 [9] = type: cell-based, Agrobacterium tumefaciens; conditions: rich medium, HPLC-purified peptides, peptide 0, 2, 10, 20 μg/ml, 24 h, OD600; lowest concentration inhibiting 50% of growth
[10] = Circular dichroism, secondary structure deconvolution; type: physicochemical; conditions: CD, structural deconvolution; for α-helix content: dissolved in water
Method: The peptides were dissolved in water to make a stock solution and then diluted in the solution that contained different concentrations of trifluoroethanol (TFE) to the desired final TFE concentration. The circular dichroism (CD) spectra between 190 and 250nm were recorded on a J-815 CD spectrometer (JASCO, Japan). The bandwidth was 2nm, and the step resolution was 0.05nm. Each sample was scanned twice, and the average of the two measurements was smoothed using the Savitzky-Golay method to get the final CD spectrum. The CD spectra were deconvoluted using the CD Multivariate SSE software version 2.0.1 (JASCO, Japan).

Xoo Xoo28 [11] = type: cell-based, Xanthomonas oryzae pv. oryzae; conditions: rich medium, HPLC-purified peptides, peptide 0, 2, 10, 20 μg/ml, 24 h, OD600; lowest concentration inhibiting 50% of growth
Xcc Xcc17 [12] = type: cell-based, Xanthomonas campestris pv. campestris; conditions: rich medium, HPLC-purified peptides, peptide 0, 2, 10, 20 μg/ml, 24 h, OD600; lowest concentration inhibiting 50% of growth
[13] = spotted on rich agar 48 h, no colony

Ac-WKKLKKLLKKLKKLLKKL-NH2 [pepD]
antimicrobial activity [1]: did not have detectable antimicrobial activity
MIC (Pst DC3000; 48 h, no visible growth): 16 µg/mL
MBC (Pst DC3000; [13]): 32 µg/mL
IC50 (Xev Xvt28 [2]; 24 h): 4 µg/mL
MIC (Atu C58C1 [3]; 48 h, no visible growth): 4 µg/mL
MBC (Atu C58C1 [3]; [13]): – (“–” indicates that no antimicrobial activity was detected in rich media at the highest peptide concentration (32μg/ml) that was tested in this study.)
IC50 (Eco DH5α [4]; DH5α, 24 h): 10 µg/mL
MIC (Xoo Xoo28 [5]; 48 h, no visible growth): 4 µg/mL
MBC (Xoo Xoo28 [5]; [13]): 4 µg/mL
antimicrobial activity (Cgl FST02): did not have detectable antimicrobial activity
MIC (Pss B728a; 48 h, no visible growth): 32 µg/mL
MBC (Pss B728a; [13]): – (“–” indicates that no antimicrobial activity was detected in rich media at the highest peptide concentration (32μg/ml) that was tested in this study.)
MBC (Pcc): – (key: “–” indicates that no antimicrobial activity was detected in rich media at the highest peptide concentration (32μg/ml) that was tested in this study.)
MIC (Pcc; Table 4, rich medium, 48 h, no visible growth, up to 32 μg/ml): 32 µg/mL
antimicrobial activity (Bc): did not have detectable antimicrobial activity
MBC (Eco DH5α [6]): 8 µg/mL
MIC (Eco DH5α [6]): 8 µg/mL
MBC (Xev Xvt28 [7]): 16 µg/mL
MIC (Xev Xvt28 [7]): 4 µg/mL
MIC (Xcc Xcc17 [8]; 48 h, no visible growth): 2 µg/mL
MBC (Xcc Xcc17 [8]; [13]): 8 µg/mL

Ac-WKLLKLLLKLLKLLLKLL-NH2 [pepA, de novo designed amphipathic peptide, 28% positively charged residues, 90° distribution]
IC50 (Xev Xvt28 [2]): – (key: “–” indicates that no antimicrobial activity was detected in rich media at the highest peptide concentration (20μg/ml) that was tested in this study.)
IC50 (Atu C58C1 [9]): – (“–” indicates that no antimicrobial activity was detected in rich media at the highest peptide concentration (20μg/ml) that was tested in this study.)
α-helix content [10]: over 90%
IC50 (Eco DH5α [4]): – (key: “–” indicates that no antimicrobial activity was detected in rich media at the highest peptide concentration (20μg/ml) that was tested in this study.)
IC50 (Xoo Xoo28 [11]): – (“–” indicates that no antimicrobial activity was detected in rich media at the highest peptide concentration (20μg/ml) that was tested in this study.)
IC50 (Xcc Xcc17 [12]): – (“–” indicates that no antimicrobial activity was detected in rich media at the highest peptide concentration (20μg/ml) that was tested in this study.)

Ac-WKLLKKLLKLLKKLLKLL-NH2 [pepB]
IC50 (Xev Xvt28 [2]; 24 h): 20 µg/mL
IC50 (Atu C58C1 [9]): – (“–” indicates that no antimicrobial activity was detected in rich media at the highest peptide concentration (20μg/ml) that was tested in this study.)
α-helix formation ([10]; 10% TFE): 90%
α-helix content [10]: about 25%
IC50 (Eco DH5α [4]): – (key: “–” indicates that no antimicrobial activity was detected in rich media at the highest peptide concentration (20μg/ml) that was tested in this study.)
IC50 (Xoo Xoo28 [11]): – (“–” indicates that no antimicrobial activity was detected in rich media at the highest peptide concentration (20μg/ml) that was tested in this study.)
IC50 (Xcc Xcc17 [12]): – (“–” indicates that no antimicrobial activity was detected in rich media at the highest peptide concentration (20μg/ml) that was tested in this study.)
